The record followed here is patent publication US20240382509A1, “Cannabinoids C- and O-glycosides possessing anti-proliferative and anti-metastatic properties and process for preparation thereof” (Council of Scientific and Industrial Research, priority 2021, published 2024).

SMILES strings stand for the structures.

The test system of one data set is Panc-1 cells. Briefly: MTT cell viability assay, Panc-1. In kind it is cell-based. The conditions noted are these: Homo sapiens, PANC-1, 48 h, read-out: Cytotoxicity (IC50) Panc-1, MTT, 48 h; pancreatic cancer cells. As to the method:
(§1) Cell viability assay: The cell viability was determined by the standard MTT assay method. Briefly, Panc-1, HCT-116, A549, PC3, MIAPaca-2, HT-29, MDA-MB-231, MCF7 cells, and fR2cells were seeded in 96 well tissue culture plates (Nunc) at a density of 4×10^3 cells per well and treated with varying concentrations of the test compounds in triplicates. DMSO was taken as a vehicle, and its final concentration was maintained at 0.2% in the culture medium. Doxorubicin was employed as a positive control. After 44 h of incubation, MTT dye solution was added into the medium, and cells were incubated for another 4 h at 37° C. in 5% CO2. The amount of colored formazan derivatives formed was measured by taking optical density (OD) using a microplate reader (TECAN, Infinite M200 Pro) at 570 nm, and the percentage of cell viability was calculated. The IC50 values were calculated using GraphPad Prism software (Version 5.0).

A further data set has as its system MCF-7 cells. Briefly: MTT cell viability assay, MCF-7. Particulars: Homo sapiens, MCF7, 48 h, read-out: Cytotoxicity (IC50) MCF-7, MTT, 48 h; breast cancer cell of epithelial origin. In kind it is cell-based. As for the experimental part:
as §1
On the technique in general: Formazan colour is commonly taken as a measure of viable cells.

The nature of data set [1]: MTT cell viability assay, fR2 normal epithelial cells. In kind it is cell-based, human. The conditions noted are these: human, fR2 normal epithelial cells; MTT, 48 h; normal epithelial cell line; read-out: Cytotoxicity (IC50) fR2. As to the method: as §1
The subject of a further data set is fR2 cells. The description is as above. In kind it is cell-based, human. Particulars: in vitro. As for the experimental part: as §1
Another data set has as its system MDA-MB-231 cells. Briefly: MTT cell viability assay, MDA-MB-231. The data set is classed as cell-based. Particulars: Homo sapiens, aggressive breast cancer cell line of mesenchymal origin. As to the method:
as §1
Now to study its anti-migratory and anti-metastatic role in another highly metastatic cancer cells of breast origin (MDA-MB 231) the IC50 value was determined by performing MTT assay (FIG. 6a).

In data set [2] the test system is MIAPaCa-2 cells. Briefly: Cell scatter assay. In kind it is cell-based, human. The conditions noted are these: MIAPaCa-2, 1, 2, 3 μM, 36 h, compared to vehicle and parent molecule. As to the method:
Cell scatter assay MIAPaCa-2 cells were seeded onto a 12 well plate at a seeding density of 500 cells/well and kept for 4-5 days, and there was the formation of scatter colonies since the cell line itself is a metastatic cell line. Accordingly, they were treated with 1 μM, 2 μM & 3 μM of compound 2, 2a, 2b, 3, 3a, 4, 4a & 4b for 36 h, and upon termination, they were washed with PBS and observed under an inverted microscope at 20× magnification (FIG. 3).

In data set [3] the test system is MIAPaCa-2 cells. Briefly: Matrigel invasion assay, MIAPaCa-2. The conditions noted are these: MIAPaCa-2, from 0.5 μM (0.5-5 μM), 36 h. In kind it is cell-based, human. As for the experimental part:
Matrigel invasion assay: MIAPaCa-2 and MDA-MB-231 cells (1×10^6) were seeded onto matrigel coated inserts and treated with compound 2a (0.5, 1.5, 3 & 5 μM) for 36 h in 5% CO2 incubator at 37° C. The upper chamber is filled with serum-free media, and the lower half consists of 10% FBS supplemented media, thus creating a gradient of chemoattractant that facilitates the migration of cells. Upon termination, the inserts were washed with PBS, and the non-migratory cells were removed from the upper chamber by using a cotton plug. Further, the cells were fixed with methanol and stained later with 0.2% crystal violet. After drying, the inserts were observed under an inverted microscope at 20× magnification, and images were taken.
Now this particular derivative was further analysed for its ability to inhibit the molecular signatures of EMT. To this end, MIAPaCa-2 cells were treated with 0.5 μM, 1.5 μM, 3 μM and 5 μM of compound 2a for 36 h and were subjected to immunoblotting to study the expression of Snail-1, Twist-1, Vimentin and E-cadherin. […] To analyse more deeply the ability of this compound to affect migration/metastasis, MIAPaCa-2 cells were seeded onto Matrigel coated inserts and were treated with 0.5 μM, 1.5 μM, 3 μM and 5 μM of compound 2a. […] Formation of invadopodia and filopodia (migratory structures) constitutes the fundamental property of cells undergoing migration. […]

Data set [4] deals with γH2AX, RAD-51, BCL-2, Bax, caspase-3 in HCT-116 cells. Briefly: Immunoblot after combinatorial treatment of 5FU and compound 2a. The data set is classed as cell-based. From the text: The effect of the compound 2a in combination with DNA damaging drug 5-Fluorouracil in colon adenocarcinoma cells was studied. […] Consequently, the major repair factor RAD-51 got diminished as compared to 5FU alone treated lane. The immunoblot results also depicted the downmodulation of cellular survival factor BCL-2 and subsequent upregulation of proapoptotic protein Bax (FIG. 8a). […] Moreover, the effect of the combinatorial treatment on chromosomal stability in HCT-116 cells by chromosome isolation and staining was studied.
The DNA damaging effect of compound 2a in combination with subtoxic doses of 5FU was further analyzed by Annexin/PI staining to check the activation of programmed cell death. […] Cumulatively, compound 2a elevated the DNA damaging effect and eventually leads to programmed cell death in combination with subtoxic doses of 5FU (FIG. 9b).
(A western blot detects proteins with antibodies after separation by electrophoresis.)

The next data set concerns γH2AX in HCT-116 cells. Put plainly: γH2AX immunofluorescence after combinatorial treatment of 5FU and compound 2a. The conditions noted are these: HCT-116, 750 nM 5FU+3 μM 2a. In kind it is cell-based. As for the experimental part:
Assessment of DNA damage by combinatorial treatment of 5FU and Compound 2a. An immunofluorescence study was performed to assess the expression of γH2AX, which tends to form a complex with damaged DNA resulting in the formation of a beads-like structure when tagged with a fluorescent labelled antibody. Briefly, HCT-116 cells were seeded in 8 well chamber slide and treated with vehicle, 750 nM 5FU+3 μM 2a for 36, 48, and 60 h and 750 nM 5FU for 60 h. Following termination of drug treatment, the cells were washed with ice-cold PBS and fixed with 4% paraformaldehyde for 10 min. Subsequently, permeabilization was done by incubating the cells with 0.1% Triton X-100. Before incubating with primary antibody (anti-γH2AX mouse monoclonal antibody), the cells were blocked with 5% BSA for 1-2 h; consequently, the cells were incubated with primary antibody (1:200) for overnight at 4° C. Subsequently, the cells were washed with ice-cold PBS for five times and further incubated with secondary anti-mouse antibody (1:500) for 30 min. The slides, after thorough washing with PBS, were mounted in DAPI containing mounting media. The images were captured in Floid imaging station at 20× optical magnification, and digital zooming was done up to […].
The effect of the compound 2a in combination with DNA damaging drug 5-Fluorouracil in colon adenocarcinoma cells was studied. […]

The mark [5] stands for this setting: HCT-116, 2a in combination with 5FU.

As to `CCCCCc1cc(O[C@@H]2OC(CO)[C@@H](O)C(O)C2O)c2c(c1)OC(C)(C)[C@@H]1CCC(C)=C[C@@H]21` (stereo partly drawn) [Compound 2a, Δ^9-tetrahydrocannabinol-1-O-β-D-glucopyranoside], the IC50 with Panc-1 cells is 3000 nM; in the data set on MCF-7 cells it was 15.4 µM; in the data set on MDA-MB-231 cells it was 1420 nM. In data set [1], the IC50 at 48 h was more than 100 µM. Also, in the data set on fR2 cells, the “toxicity towards normal human breast epithelial cells” value is reported as “non-toxic”. In the data set on MIAPaCa-2 cells [2], the cell scattering result is “typical clumping of scatter cells”. Further, the “cellular invasion, Matrigel” value in the data set on MIAPaCa-2 cells [3] is “inhibition of cellular invasion”. Further, the caspase-3 cleavage result in [4] (HCT-116, 2a in association with 5FU, 48 and 60 h) is on record as “incite caspase-3 cleavage”. For the same molecule, the BCL-2 survival factor entry in data set [4] (setting [5]) is on record as “downmodulation”. Moreover, in data set [4] (setting [5]), the “proapoptotic protein Bax” value is reported as “upregulation”. Moreover, in data set [4] (HCT-116, 2a in combination with 5FU, 36 and 48 h), the “expression of γH2AX protein (immunoblot)” value was “enhanced expression”. Also, in data set [4] (HCT-116, 2a in combination with 5FU, compared to 5FU alone), the RAD-51 repair factor result is reported as “diminished”. Moreover, in the data set with γH2AX in HCT-116 cells, the “expression of γH2AX (immunocytochemistry)” value is reported as “increased expression”.

As usually defined, the IC50 is the point on the concentration scale where inhibition reaches its midpoint.
